Measured values reported in patent US8188080B2 (Sanford-Burnham Medical Research Institute, priority 2007, dated 2012).
Where two headings read alike, the source gives them in different places.

Assays:
[1] = biological target: T1, VHR (Homo sapiens, UniProt P51452); test: Inhibition constant and inhibition pattern (Lineweaver-Burk plot); type: biochemical; settings: FIG. 1
Protocol: Using the same format and buffer system as for […] measurements, the enzyme was preincubated with various fixed concentrations of inhibitors for 10 minutes. The reaction was initiated by addition of various concentrations of DiFMUP (ranging from 0.2 to 10 km) to the reaction mixture. The initial rate was determined using a FLx800 micro plate reader (Bio-Tek Instruments, Inc.), and exitation wave length of 360 nm and measuring the emission of the fluorescent reaction product DiFMU at 460 nm. The nonenzymatic hydrolysis of the substrate was corrected by measuring the control without addition of enzyme. The inhibition constant and inhibition pattern was evaluated by fitting the data to the Michaelis-Menten equations for either competitive, uncompetitive or mixed inhibition, using nonlinear regression and the program GraphPad Prism™.

[2] = biological target: T1, VHR; test: PTP-catalyzed hydrolysis of DiFMUP, IC50 determination (VHR); type: biochemical; settings: read-out: IC50
Protocol: The PTP-catalyzed hydrolysis of 6,8-difluoro-4-methylumbelliferyl phosphate (DiFMUP) in the presence of the test compound is assayed at 30° C. in a 60 μL 96 well format reaction system in 0.15 M Bis-Tris, pH 6.0 assay buffer having an ionic strength of 150 mM (adjusted with NaCl) and containing 1 mM dithiotreitol and 5% DMSO. At various concentrations of the compound, the initial rate at fixed DiFMUP concentration (equal to the corresponding Km value for each PTP) was determined using a FLx800 micro plate reader (Bio-Tek Instruments, Inc.), an excitation wave length of 360 nm and measuring the emission of the fluorescent reaction product 6,8-difluoro-7-hydroxy-4-methylcoumarin (DiFMU) at 460 nm. The nonenzymatic hydrolysis of the substrate was corrected by measuring the control without addition of enzyme. The IC50 value was determined by plotting the relative activity versus inhibitor concentrations and fitting to Equation 1 using the software GraphPad Prism™ (GraphPad Software, Inc.).
[formula] In this case, Vi, is the reaction velocity when the inhibitor concentration is [I], V0 is the reaction velocity with no inhibitor and IC50=Ki+Ki[S]/Km.

[3] = biological target: HIV-1 protease (Human immunodeficiency virus type 1 group M subtype B, UniProt P04585); settings: cited from earlier work
[4] = test system: phospholipase A2; settings: cited from earlier work
[5] = test system: Ball-1 cells; settings: in vitro, arrest at G1/S transition; cited from earlier work
[6] = biological target: T2, heparanase (Homo sapiens, UniProt Q9Y251); settings: cited from earlier work
T2 sequence (Q9Y251 158-543 limits assumed): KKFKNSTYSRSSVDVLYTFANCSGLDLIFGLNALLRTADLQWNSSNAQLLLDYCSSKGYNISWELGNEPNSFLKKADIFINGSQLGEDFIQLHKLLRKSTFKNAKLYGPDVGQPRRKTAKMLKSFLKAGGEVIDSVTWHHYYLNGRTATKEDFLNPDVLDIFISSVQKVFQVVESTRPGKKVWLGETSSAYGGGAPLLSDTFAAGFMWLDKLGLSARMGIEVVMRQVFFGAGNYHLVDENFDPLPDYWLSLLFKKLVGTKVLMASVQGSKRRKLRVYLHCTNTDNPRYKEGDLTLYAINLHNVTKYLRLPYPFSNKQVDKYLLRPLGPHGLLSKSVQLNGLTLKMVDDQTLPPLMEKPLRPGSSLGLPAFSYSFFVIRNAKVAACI
T2 sequence (Q9Y251 36-109 partner limits assumed): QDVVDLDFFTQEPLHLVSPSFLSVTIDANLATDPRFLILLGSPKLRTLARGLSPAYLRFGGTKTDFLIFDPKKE

T1 sequence (P51452 whole entry): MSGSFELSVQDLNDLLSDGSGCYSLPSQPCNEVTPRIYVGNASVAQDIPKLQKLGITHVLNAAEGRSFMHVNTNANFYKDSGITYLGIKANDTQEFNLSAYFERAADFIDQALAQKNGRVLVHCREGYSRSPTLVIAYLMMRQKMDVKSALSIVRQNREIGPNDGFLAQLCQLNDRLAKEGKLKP

## O=C1/C(=C/C=C/c2ccccc2)SC(=S)N1CCS(=O)(=O)O [2-[(Z)-4-oxo-5-((E)-3-phenylallylidene)-2-thioxothiazolidin-3-yl]ethane-sulfonic acid]
[1]
  inhibition pattern of VHR: competitive inhibition

## CCOc1cc(/C=C2\SC(=S)N(CCS(=O)(=O)O)C2=O)ccc1O [Compound 1, (Z)-2-[5-(3-Ethoxy-4-hydroxybenzylidene)-4-oxo-2-thioxothiazolidin-3-yl)ethansulfonic acid]
[2]
  IC50: 50 µM

## O=C1/C(=C/c2ccc(Cl)cc2Cl)SC(=S)N1CCS(=O)(=O)O [Compound 2, (Z)-2-[5-(2,4-Dichlorobenzylidene)-4-oxo-2-thioxothiazolidin-3-yl)ethansulfonic acid]
[2]
  IC50: 9.81 µM

## O=C(CN1C(=O)C(/C=C2\SC(=S)N(CCS(=O)(=O)O)C2=O)c2ccccc21)Nc1ccc(F)cc1 (stereo not drawn) [Compound 4]
[2]
  IC50: 12 µM

## CCCCCCCCCCCCCCCC(=O)C1=C(O)C(CO)OC1=O (stereo not drawn) [RK-682]
[3]
  HIV-1 protease inhibition: HIV-1 protease inhibition
[4]
  phospholipase A2 inhibition: phospholipase A2 inhibition
[5]
  cell cycle progression: inhibited cell cycle progression
[6]
  heparanase inhibition: heparanase inhibition

## (Z)-2-[5-(5-bromo-1-methyl-2-oxoindolin-3-ylidene)-4-oxo-2-thioxothiazolindin-3-yl]ethanesulfonic acid [Compound 3]
[2]; Table I, DiFMUP at Km, pH 6.0, 30° C.
  IC50: 32.6 µM
